Results as given in patent publication US7863325B2, “Crystalline genistein sodium salt dihydrate” (Axcentua Pharmaceuticals AB, priority 2008, dated 2011).
Read-outs that look alike come from different tables or passages of the source.

Columns and labels:
[1] = rat
Description: Preparation of Dosing Solutions for In-Vivo Study: Genistein and Crystalline genistein sodium salt dihydrate were stored at room temperature under desiccant and protected from light. The dosing solutions were prepared fresh from powders on the day of dosing. The dosing solution for intravenous administration (IV) was prepared at 1 mg/mL (free acid) in 50:50 DMSO:saline. The dosing solutions for intraduodenal administration (ID) were prepared at 2 mg/mL (genistein free acid) in a 0.2% sodium carboxymethyl cellulose (Na CMC) solution in water.
Animal Dosing: The pharmacokinetics of genistein was evaluated in fasted male Sprague-Dawley rats. Each animal was fitted with a jugular vein cannula (JVC) for blood sampling. Animals intended for intravenous dosing were fitted with an additional JVC for dose administration. Animals intended for intraduodenal dosing were fitted with an intraduodenal cannula (IDC) for dose administration. Surgically modified animals were housed one per cage. All animals were supplied with a commercial rodent diet (LabDiet, Certified Rodent Diet #5002) ad libitum prior to study initiation. […] Water was supplied ad libitum.
Intraduodenal dosing solutions were administered as a single bolus dose at time zero on the day of dosing. Intravenous doses were administered as a slow IV injection over approximately 1 minute. Blood sampling times began at the end of the infusion. Blood samples were collected.
Each blood sample was collected from the rats via a jugular vein cannula and placed into chilled polypropylene tubes containing sodium heparin as an anticoagulant. Samples were centrifuged at a temperature of 4° C. and at a speed of 13,000 rpm for 5 minutes. Samples were maintained chilled throughout processing. Each plasma sample was split into two aliquots. The first aliquot contained 50 μL of plasma. All remaining plasma volume was used for the second aliquot. Samples were then placed on dry ice, and stored in a freezer set to maintain −60° C. to −80° C. The total concentration of genistein in plasma samples were analyzed by LC-MS/MS after an overnight incubation with glucuronidase/arylsulfatase enzyme mixture. Pharmacokinetic parameters were calculated using the WinNonlin software.
Analysis of Plasma Samples: An LC-MS/MS analytical method for the determination of genistein in rat plasma was developed. Prior to sample analysis, a standard curve was analyzed to determine the specificity, range, and linearity of the method. Total genistein in plasma samples was determined by pre-treating all samples with β-glucuronidase/arylsulfatase enzymes and incubating prior to analysis. Incubation with the enzyme mix deconjugated any glucuronide or sulfate metabolites of genistein back to the parent form.
Acceptance Criteria for LC-MS/MS Analysis: One standard curve was dispersed throughout each analytical run. At least ⅝ of the standards must be accurate to within ±20%, except at the LLOQ where ±25% is acceptable, in order for the run to pass.
Pharmacokinetic Analysis: Individual plasma concentrations versus time data for genistein were subjected to non-compartmental analysis using the pharmacokinetic program WinNonlin v. […] Plasma concentrations below the limit of quantitation (10 ng/mL) were assigned a value of zero for PK analysis only.

[2] = Hydration study (IPA/water mixtures, XRPD and TGA); format: physicochemical; details: IPA/water mixtures (3%, 5% and 10%), ca. 48 hours, ambient temperature
Description: Approximately 100 mg of crystalline genistein sodium salt dihydrate were placed in ca. 500 μL IPA/water mixtures (3%, 5% and 10%) at the water level. Each mixture was agitated for ca. 48 hours at ambient temperature and then filtered to recover the solid for XRPD and TGA studies.

[3] = Disproportionation study (slurry in distilled water, XRPD, pH); format: physicochemical; details: 50 mg slurried in 250 μL distilled water ca. 48 hours
Description: A 50 mg sample of crystalline genistein sodium salt dihydrate was slurried in 250 μL distilled water for ca. 48 hours and then checked by XRPD for disproportionation. The pH of the supernatant was also measured using a Corning 240 pH meter. […] The pH of the supernatant after slurrying was 7.1.

[4] = SuperSol 1000 kinetic and equilibrium solubility assay
[5] = Gravimetric vapor sorption (GVS); format: physicochemical
Description: Gravimetric Vapor Sorption (GVS): Approximately 15 mg of sample was placed into a wire-mesh vapor sorption balance pan and loaded into an SMS intrinsic vapor sorption balance supplied (Surface Measurement Systems Instruments). The sample was then dried by maintaining a 0% humidity environment until no further weight change was recorded. Subsequently, the sample was then subjected to a ramping profile from 0-90% RH at 10% RH increments, maintaining the sample at each step until equilibration had been attained (99.5% step completion). Upon reaching equilibration, the % RH within the apparatus was ramped to the next step and the equilibration procedure repeated. After completion of the sorption cycle, the sample was then dried using the same procedure. The weight change during the sorption/desorption cycles were then monitored, allowing for the hygroscopic nature of the sample to be determined.
However, between 20 and 70 RH % (typical working range of material) only ca. 2% moisture change was observed.

[6] = Solubility in different solvents (aliquot addition until dissolution); format: physicochemical
Description: Solubility in different solvents: Solubility in different organic solvents was measured using the following protocol. Approximately 25 mg portions of genistein and crystalline genistein sodium dihydrate salt were placed in 48 different vials, separately. 5 volume aliquots of each solvent were added exclusively to a vial. Between each addition, the mixture was checked for dissolution and if no dissolution was apparent, the procedure was continued until dissolution was observed or when 50 volumes had been added.

[7] = Aqueous solubility (slurry shaken ca. 24 hours, filtered, HPLC); format: physicochemical; details: aqueous buffer, thermodynamic from solid
Description: Aqueous Solubility: Aqueous solubility was measured using the following protocol. Slurries of genistein and of crystalline genistein sodium dihydrate salt were made up in aqueous media in which pH was set at 4.5, 6.7, and 7.5, each slurry was shaken at ambient temperature for ca. 24 hours and then filtered using a 0.2 μm filter into a clean vial. The saturated solutions were then diluted and analyzed for API (genistein) content using N-Ac-DL-Methionine on a Chirobiotic T HPLC column and UV detector set at λmax=270 nm. The mobile phase was acetonitrile/water run in isocratic mode over a 30 minute period. The results are presented in Table 3, (BDL=below detection limits).

[8] = Stability study (80° C., 40° C./75 RH %, light; XRPD and colour); format: physicochemical
Description: Sample stability was tested at 80° C. for 7 days and at 40° C./75 RH % for 7 days. Observations such as color change were noted after 7 days and XRPD of samples were taken after 7 days to investigate any solid form change.

[9] = intravenous, 1 mg/kg, mean ± SD, n = 3

O.O.O=c1c(-c2ccc(O)cc2)coc2cc(O)cc(O)c12.[Na] [genistein sodium salt dihydrate]
Time after ID dosing at which Cmax was observed ([1]; intraduodenal dosing, mean profile (FIG. 13)): ≤ 15 min
AUClast ([1]; intraduodenal, 20 mg/kg, mean ± SD, n = 3): 1161 ± 358 kg·ng·h/mL/mg
Pharmacokinetic profile following IV dosing, compared between the two forms ([1]; intravenous, 1 mg/kg): not significantly different
AUClast [1, 9]: 2129 ± 331 kg·ng·h/mL/mg
AUC∞ [1, 9]: 2189 ± 356 kg·ng·h/mL/mg
Hydrate formation (XRPD, TGA) [2]: no further hydrates
Disproportionation (XRPD) [3]: No signs of disproportionation
pH of the supernatant after slurrying [3]: 7.1
C[Eq] (late kinetic solubility) ([4]; EtOH 100%): 11.20 mg×1^−1
C[MSS] (early kinetic solubility) ([4]; EtOH 100%): 10.85 mg×1^−1
ISI (Intrinsic Solubility Index) ([4]; EtOH 100%): 0.07
ISI / late solubility profile, rating in words ([4]; EtOH 100%): poor
KSR (Kinetic Solubility ratio) ([4]; EtOH 100%): 0.97
KSR, rating in words ([4]; EtOH 100%): excellent
MSS (Maximum Solubility Speed) ([4]; EtOH 100%): 36.90 mg×1^−1×min^−1
MSS, rating in words ([4]; EtOH 100%): excellent
ΔC [C, − CMSS] ([4]; EtOH 100%): 0.35 mg×1^−1
C[Eq] (late kinetic solubility) ([4]; EtOH/dH2O 50/50 (vol/vol)): 17.40 mg×1^−1
C[MSS] (early kinetic solubility) ([4]; EtOH/dH2O 50/50 (vol/vol)): 14.67 mg×1^−1
ISI (Intrinsic Solubility Index) ([4]; EtOH/dH2O 50/50 (vol/vol)): 0.60
ISI / late solubility profile, rating in words ([4]; EtOH/dH2O 50/50 (vol/vol)): good-to-acceptable
KSR (Kinetic Solubility ratio) ([4]; EtOH/dH2O 50/50 (vol/vol)): 0.84
KSR, rating in words ([4]; EtOH/dH2O 50/50 (vol/vol)): excellent
MSS (Maximum Solubility Speed) ([4]; EtOH/dH2O 50/50 (vol/vol)): 20.66 mg×1^−1×min^−1
MSS, rating in words ([4]; EtOH/dH2O 50/50 (vol/vol)): excellent
ΔC [CEq − CMSS] ([4]; EtOH/dH2O 50/50 (vol/vol)): 2.73 mg×1^−1
C[Eq] (late kinetic solubility) ([4]; EtOH/dH2O 75/25 (vol/vol)): 15.86 mg×1^−1
C[MSS] (early kinetic solubility) ([4]; EtOH/dH2O 75/25 (vol/vol)): 11.20 mg×1^−1
ISI (Intrinsic Solubility Index) ([4]; EtOH/dH2O 75/25 (vol/vol)): 1.26
ISI / late solubility profile, rating in words ([4]; EtOH/dH2O 75/25 (vol/vol)): excellent
KSR (Kinetic Solubility ratio) ([4]; EtOH/dH2O 75/25 (vol/vol)): 0.71
KSR, rating in words ([4]; EtOH/dH2O 75/25 (vol/vol)): excellent
MSS (Maximum Solubility Speed) ([4]; EtOH/dH2O 75/25 (vol/vol)): 37.33 mg×1^−1×min^−1
MSS, rating in words ([4]; EtOH/dH2O 75/25 (vol/vol)): excellent
ΔC [CEq − CMSS] ([4]; EtOH/dH2O 75/25 (vol/vol)): 4.66 mg×1^−1
Maximum water adsorbed (GVS) ([5]; 0-90% RH cycle): 45 wt %
Moisture change (GVS) ([5]; between 20 and 70 RH %): ca. 2%
solubility ([6]; aqueous with cosolvent or surfactant or cyclodextrin, thermodynamic from solid, Acetone/Water (50:50)): 69.6 mg/mL
solubility ([6]; organic solvent or mixture, thermodynamic from solid, 1,4-dioxane): < 10.6 mg/mL
solubility ([6]; organic solvent or mixture, thermodynamic from solid, 1-Butanol (BuOH)): 19.3 mg/mL
solubility ([6]; organic solvent or mixture, thermodynamic from solid, 2-Propanol (IPA)): < 10.2 mg/mL
solubility ([6]; organic solvent or mixture, thermodynamic from solid, Acetone): < 10.2 mg/mL
solubility ([6]; organic solvent or mixture, thermodynamic from solid, Acetone/IPA (50:50)): 20.2 mg/mL
solubility ([6]; organic solvent or mixture, thermodynamic from solid, Acetonitrile (MeCN)): < 10.4 mg/mL
solubility ([6]; organic solvent or mixture, thermodynamic from solid, Cyclohexane): < 10.9 mg/mL
solubility ([6]; organic solvent or mixture, thermodynamic from solid, Dichloromethane (DCM)): < 10.8 mg/mL
solubility ([6]; organic solvent or mixture, thermodynamic from solid, Diisopropylether (DIPE)): < 9.7 mg/mL
solubility ([6]; organic solvent or mixture, thermodynamic from solid, Dimethyl sulfoxide (DMSO)): > 235 mg/mL
solubility ([6]; organic solvent or mixture, thermodynamic from solid, Ethanol (EtOH)): 98 mg/mL
solubility ([6]; organic solvent or mixture, thermodynamic from solid, Heptane): < 9.9 mg/mL
solubility ([6]; organic solvent or mixture, thermodynamic from solid, Methanol (MeOH)): < 8.8 mg/mL
solubility ([6]; organic solvent or mixture, thermodynamic from solid, Methyl acetate (MeOAc)): < 10.2 mg/mL
solubility ([6]; organic solvent or mixture, thermodynamic from solid, Methyl isobutyl ketone (MIBK)): < 9 mg/mL
solubility ([6]; organic solvent or mixture, thermodynamic from solid, Methylethyl ketone (MEK)): < 9.2 mg/mL
solubility ([6]; organic solvent or mixture, thermodynamic from solid, N-Methyl-2-pyrrolidinone (NMP)): 90.4 mg/mL
solubility ([6]; organic solvent or mixture, thermodynamic from solid, N-N-dimethylformamide (DMF)): > 218 mg/mL
solubility ([6]; organic solvent or mixture, thermodynamic from solid, Octanol): < 11 mg/mL
solubility ([6]; organic solvent or mixture, thermodynamic from solid, Tetrahydrofuran (THF)): < 10.4 mg/mL
solubility ([6]; organic solvent or mixture, thermodynamic from solid, Toluene): < 9.9 mg/mL
solubility ([6]; organic solvent or mixture, thermodynamic from solid, Toluene/Dioxane (50:50)): < 9.7 mg/mL
solubility ([6]; organic solvent or mixture, thermodynamic from solid, tert-Butylmethyl ether (TBME)): < 9.2 mg/mL
solubility ([7]; Water/slurry pH 4.5, ambient temperature): 0.136 mg/mL
solubility ([7]; Water/slurry pH 6.7, ambient temperature): 0.707 mg/mL
solubility ([7]; Water/slurry pH 7.5, ambient temperature): 0.65 mg/mL
Solid form stability (XRPD, colour) ([8]; 40° C./75 RH % for 7 days): no change
Solid form stability (XRPD, colour) ([8]; 80° C. for 7 days): slight loss in crystallinity
Light stability ([8]; 7 day light stability tests): no change in color or solid form
